Patent EP1255553B1 (Stegram Pharmaceuticals Limited, priority 2000, dated 2001)
Entries after “also recorded” stand apart in the source; their conditions may differ. Like-named read-outs stand apart in the source and are kept apart here.

Columns and labels:
[1] = test system: oestrogen receptor isoforms in rat uterus; experiment: Tritiated tamoxifen binding to oestrogen receptor isoforms (IEF); settings: Figure 5, test compound 10 micromolar, tritiated tamoxifen 10^-6M
Protocol: (§1) Using tissue, snap frozen at time of excision, cytosols were prepared by dismembration using a Braun II Mikrodismembrator. Frozen tissue was minced and pulverised. The resultant powder was resuspended in 1-mm phosphate buffer containing 10% (v/v) glycerol, 1.5mm EDTA, 10mM monothioglycerol, 20mM Sodium molybdate, aprotinin (1ug/ml) and STI (1ug/ml) and phenyl methyl sulfonyl fluoride (30ug/ml) at pH 7.4 by stirring for 15 minutes at 4°C. This suspension was centrifuged at 100,000g for 1 hour at 4°C and the supernantant was used for competition analysis.
After overnight incubation free steroid was separated from bound by incubating with dextran coated charcoal (0.25% w/v charcoal, 0.025% w/v Dextran T70 in 10mM Tris 1.5mM EDTA at pH 7.4) for 10 mins at 4°C. The DCC was pelleted by centrifugation (10,000g for 10 mins) and aliquots of the supernatant were used for IEF separation.
Isoelectric focusing (IEF) gels were cast in slabs of size 125 x 260 mm and separation was conducted along either the short side (short run) or the long side (long run) of the gel. […]
After DCC extraction, aliquots (270ul) of the radioactive supernatant (3 mg protein/ml) derived from SSD assay were loaded near the cathode. […] After the run the gels were cut into 2.5 mm slices and each slice was incubated with 5ml scintillation cocktail for 24h at room temperature and radioactivity assayed.

[2] = test system: rat uterine oestrogen receptors; experiment: Scatchard analysis of tritiated oestradiol binding, rat uterus; settings: Figure 2, Trilostane at 10micromolar
Protocol: as §1
(§2) After overnight incubation at 4°C assay tubes were incubated with DCC as above to remove free steroid and aliquots of the resultant supernatant were incubated with toluene based scintillant and counted on a Scintillation Counter. Data obtained was analysed according to the method of Scatchard.

MCF-7 cells = experiment: Thymidine labeling of MCF-7 cells; format: cell-based
Protocol: MCF-7 cells were plated out in multiwell dishes and grown for 24 hours in serum free medium (MEM). […] Radiolabelled thymidine was added to each well ([…]) and cells were then cultured for a further 24 hours. At the end of this period the medium was aspirated and the cultured cells were rinsed 3-times with cold buffer solution(50mm Tris-HCl, pH 7.4). The cells were then dissolved in 1ml of 0.1N NaOH and 0.5ml of this solution was mixed with 2.5ml of Scintillation cocktail and the intracellular radioactivity of ^3H was measured with a liquid scintillation counter.

[3] = advanced breast cancer, cited from earlier work
[4] = test system: oestrogen receptor isoforms; experiment: Isoelectric focusing (IEF) of 3H oestradiol binding to oestrogen receptor isoforms in tissue cytosol; parameters: species or system rat; settings: Trilostane 10 micromolar, 3H oestradiol 5nM
[5] = test system: rat prostate oestrogen receptors; experiment: Scatchard analysis of tritiated oestradiol binding, rat prostate; parameters: dose or concentration left out as unconfirmed; settings: Figure 3
Protocol: as §1, §2

[6] = test system: oestrogen response element driven GFP gene in MCF-7 breast cancer cell line; experiment: Oestrogen reporter plasmid xTG (GFP) transcriptional activity in MCF-7 cells; format: cell-based; settings: compound at 10^-6M plus E2 at 10^-8M; MCF-7 transiently transfected with xTG for three days
From the text: XTG consists of a oestrogen response element. Upstream of a simple TATA promoter which together drive transcription of the GFP gene from the jellyfish Aequorea victoria. The xERE sequence is made up of the following - GGTCA CAG TGACC […] (SEQUENCE ID NO: 1)
The GFP gene - from GFPuv was supplied by Clontech (Clontech Laboratories, Inc., 1020 East Meadow Circle, Palo Alto, CA 94303-4230, USA)
E2 was used at a concentration of 10^-8M while all other compounds were used at 10^-6M. All ligands were added to cell media during transfection.

[7] = cited from earlier work
[8] = target: oestrogen receptor present in MCF-7 breast cancer cell extracts / oestrogen response element (Homo sapiens, UniProt P03372); experiment: Electrophoretic mobility shift assay (EMSA) of ER-ERE complex formation in extracts of treated MCF-7 cells; format: cell-based; settings: MCF7, 24 h, read-out: ER-ERE complex formation
Chain of oestrogen receptor present in MCF-7 breast cancer cell extracts / oestrogen response element (P03372 whole entry): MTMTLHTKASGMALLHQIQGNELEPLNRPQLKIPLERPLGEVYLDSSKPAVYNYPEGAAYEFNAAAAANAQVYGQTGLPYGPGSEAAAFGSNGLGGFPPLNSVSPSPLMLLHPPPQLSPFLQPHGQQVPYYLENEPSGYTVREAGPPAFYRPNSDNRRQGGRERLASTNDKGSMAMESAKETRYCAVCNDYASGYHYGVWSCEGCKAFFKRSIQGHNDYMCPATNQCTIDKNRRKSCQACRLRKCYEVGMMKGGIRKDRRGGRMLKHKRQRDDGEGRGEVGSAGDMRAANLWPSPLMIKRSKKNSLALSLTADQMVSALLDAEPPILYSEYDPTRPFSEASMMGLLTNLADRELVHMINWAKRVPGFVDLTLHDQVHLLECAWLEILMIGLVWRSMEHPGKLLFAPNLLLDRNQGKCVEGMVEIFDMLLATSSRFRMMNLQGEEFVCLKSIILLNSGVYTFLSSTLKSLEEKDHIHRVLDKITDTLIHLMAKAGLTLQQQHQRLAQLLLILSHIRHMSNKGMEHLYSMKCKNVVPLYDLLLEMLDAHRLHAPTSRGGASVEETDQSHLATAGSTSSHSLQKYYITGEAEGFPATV

Compound: C[C@]12CC[C@H]3[C@@H](CC[C@@]45O[C@@H]4C(O)=C(C#N)C[C@]35C)[C@@H]1CC[C@@H]2O [Trilostane, (4α,5α-17β)-4,5-epoxy-3,17-dihydroxyandrost-2-ene-2carbonitrile]
- tritiated tamoxifen binding to oestrogen receptor isoforms [1]: increased tritiated tamoxifen binding to oestrogen receptor isoforms
- concentration of total receptor (X axis intercept of Scatchard plot) [2]: increases the apparent affinity of oestrogen binding (given by the slope of the regression lines) and the concentration of total receptor
- blocking of the oestradiol-induced increase in thymidine labeling (MCF-7 cells; E2+T: Oestradiol 10^-8 M and Trilostane 10µM, 24 hours): completely blocked
- inhibition at 10 µM (MCF-7 cells; Homo sapiens, MCF7, 24 h, read-out: inhibition of thymidine uptake of MCF-7 cells compared with control): 31%
- response rate ([3]; Ingle J.N. et al 1990): 38%
- response rate ([3]; Williams C.J. et al 1993): 29%
- binding of oestrogen onto the oestrogen receptor isoforms [4]: modulated the binding of oestrogen onto all the oestrogen receptor isoforms but principally onto the pI 6.3 isoform
- concentration of total receptor (x axis intercept of Scatchard plot) [5]: increases the concentration of total receptor; also recorded: an increase in receptor concentration
- E2-driven transactivation / transcription of GFP [6]: reduced transcription of GFP

Compound: O=C(c1ccc(OCCN2CCCCC2)cc1)c1c(-c2ccc(O)cc2)sc2cc(O)ccc12 [raloxifene]
- E2-driven transactivation / transcription of GFP [6]: reduced E2-driven transactivation

Compound: CC/C(=C(\c1ccccc1)c1ccc(OCCN(C)C)cc1)c1ccccc1 [tamoxifen]
- reduction of the risk of invasive breast cancer ([7]; all women, two-sided P<.00001): 49%
- occurrence of oestrogen receptor-negative tumors ([7]; in vivo): no difference
- reduction of the occurrence of oestrogen receptor-positive tumors ([7]; in vivo): 69%
- cumulative incidence of invasive breast cancer ([7]; through 69 months of follow-up, tamoxifen group): 22.0 per 1000 women
- reduction of the risk of noninvasive breast cancer ([7]; two-sided P<.002): 50%
- decreased risk of invasive breast cancer ([7]; women aged 49 years or younger): 44%
- decreased risk of invasive breast cancer ([7]; women aged 50-59 years): 51%
- decreased risk of invasive breast cancer ([7]; women aged 60 years or older): 55%
- decreased risk of invasive breast cancer ([7]; women with a history of atypical breast hyperplasia): 86%
- decreased risk of invasive breast cancer ([7]; women with a history of breast lobular carcinoma in situ): 56%
- E2-driven transactivation / transcription of GFP [6]: reduced E2-driven transactivation

Compound: C[C@]12CC[C@H]3[C@@H](CC[C@@]45O[C@@H]4C(=O)[C@H](C#N)C[C@]35C)[C@@H]1CCC2=O [keto-trilostane]
- tritiated tamoxifen binding to oestrogen receptor isoforms [1]: increased tritiated tamoxifen binding to oestrogen receptor isoforms
- activity at 10 µM [8]: 68%

Compound: C[C@]12CC[C@@H]3c4ccc(O)cc4CC[C@H]3[C@@H]1CC[C@@H]2O [oestradiol]
- activation at 0.01 µM (MCF-7 cells; Homo sapiens, MCF7, 24 h, read-out: increase in thymidine labeling compared to control): 15%
